US20030215462A1, “Use of UGT inhibitors to increase bioavailability” (priority 2001, published 2003)
Values joined by “and” are separate entries in the source; they are usually repeats but may differ in a detail not shown here. Identical values can stand only once.

Assays:
[1] = tested on: UGT enzymes of pooled human jejunum microsomes; test: Inhibition of estradiol (E2) glucuronidation in pooled human jejunum microsomes; format: biochemical; conditions: jejunum HJ61; E2 50 μM; inhibitor 100 μM
Description: (§1) Compounds were eluted using a binary solvent gradient system where solvent A was dilute phosphoric acid (pH 3) and solvent B was 80:20 acetonitrile-methanol. […] Detection was at 280 nm.

[2] = tested on: UGT enzymes of pooled human jejunum microsomes; test: Inhibition of raloxifene glucuronidation (G1, G2) in pooled human jejunum microsomes; format: biochemical; conditions: jejunum HJ61; inhibitor 50 μM
Protocol: (§2) Compounds were eluted using a binary solvent gradient system. […] Solvent B was methanol. […] Detection was at 280 nm.
Standardized incubations utilized […] microsomal protein, 1 mM UDPGA and a 30 min incubation time.

[3] = tested on: T1, UGT enzymes of human liver microsomes; test: Inhibition of 2ME2 glucuronidation (MG1, MG2) in human liver microsomes; format: biochemical; conditions: liver 062101, 2ME2 50 μM
T1 construct: other: liver 062101
Description: as §1

[4] = tested on: T2, UGT enzymes of human liver microsomes; test: Inhibition of labetalol glucuronidation (LG1, LG2) in human liver microsomes; format: biochemical; conditions: labetalol 50 μM
T2 construct: residual metabolism (percentage of control), labetalol LG1; other: labetalol 50 μM; residual metabolism (percentage of control), labetalol LG1; residual metabolism (percentage of control), labetalol LG2; inhi
Protocol: Supernatants were analyzed by HPLC with fluorescence detection.
Compounds were eluted using a binary solvent gradient system where solvent A was 5:5:90 tetrahydrofuran-acetonitrile-(NH4)2HPO4 50 mM, while solvent B was 25:25:50 tetrahydrofuran-acetonitrile-(NH4)2HPO4 50 mM. Solvent flow rate was 0.75 ml/min and the column temperature was ambient. […] Labetalol and metabolites were measured by fluorescence detection using a Jasco model FP920 detector. Excitation and emission wavelengths were 370 nm 418 nm respectively. Retention times for salicylamide internal standard and labetalol were 6.6 min and 15.0 min respectively.

[5] = tested on: UGT enzymes of human liver microsomes; test: Inhibition of raloxifene glucuronidation (G1, G2) in human liver microsomes; format: biochemical; conditions: for % of control metabolism (SD, n = 3), raloxifene glucuronide G1 / % of control metabolism (SD, n = 3), raloxifene glucuronide G2: human liver microsomes 250 μg/ml, 15 min
Description: as §2

UGT1A9 = target: T3, UGT1A9 (Homo sapiens, UniProt O60656); test: Inhibition of raloxifene glucuronidation by recombinant UGT1A9 Supersomes; conditions: for inhibition of raloxifene glucuronidation, in words: UGT1A9; for activity at 15 min, 50 µM: human, Supersomes with recombinant human UGT1A9, pH 7.5, probe raloxifene 50 μM
T3 sequence (O60656 26-530): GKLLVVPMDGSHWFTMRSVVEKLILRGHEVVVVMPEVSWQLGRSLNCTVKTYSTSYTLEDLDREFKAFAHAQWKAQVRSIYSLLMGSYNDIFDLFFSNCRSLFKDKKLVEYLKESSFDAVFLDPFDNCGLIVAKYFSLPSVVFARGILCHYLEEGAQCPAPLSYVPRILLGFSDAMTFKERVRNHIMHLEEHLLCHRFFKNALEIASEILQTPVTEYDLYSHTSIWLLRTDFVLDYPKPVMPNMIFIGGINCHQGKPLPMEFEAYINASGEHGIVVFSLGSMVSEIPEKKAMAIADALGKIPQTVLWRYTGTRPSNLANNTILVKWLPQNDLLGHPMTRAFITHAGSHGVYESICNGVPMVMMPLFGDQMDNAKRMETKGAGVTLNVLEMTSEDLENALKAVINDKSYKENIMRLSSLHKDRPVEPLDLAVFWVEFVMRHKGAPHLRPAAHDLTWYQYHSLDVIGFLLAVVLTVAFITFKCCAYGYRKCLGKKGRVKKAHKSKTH
Protocol: (§3) Compounds were eluted using a binary solvent gradient system. Solvent A was water brought to pH 8 with NH4OH. Solvent B was methanol. Solvent flow rate was 1 ml/min and the column temperature was maintained at 50° C. Detection was at 280 nm. […] The system was then returned to the initial conditions and equilibrated for 3 min.

UGT1A10 = target: T4, UGT1A10 (Homo sapiens, UniProt Q9HAW8); test: Inhibition of raloxifene glucuronidation by recombinant UGT1A10 Bacculosomes; conditions: for inhibition of raloxifene glucuronidation, in words: UGT1A10; for activity at 15 min, 50 µM: human, Bacculosomes with recombinant human UGT1A10, pH 7.5, probe raloxifene 50 μM, inhibitor 50 μM
T4 sequence (Q9HAW8 26-530): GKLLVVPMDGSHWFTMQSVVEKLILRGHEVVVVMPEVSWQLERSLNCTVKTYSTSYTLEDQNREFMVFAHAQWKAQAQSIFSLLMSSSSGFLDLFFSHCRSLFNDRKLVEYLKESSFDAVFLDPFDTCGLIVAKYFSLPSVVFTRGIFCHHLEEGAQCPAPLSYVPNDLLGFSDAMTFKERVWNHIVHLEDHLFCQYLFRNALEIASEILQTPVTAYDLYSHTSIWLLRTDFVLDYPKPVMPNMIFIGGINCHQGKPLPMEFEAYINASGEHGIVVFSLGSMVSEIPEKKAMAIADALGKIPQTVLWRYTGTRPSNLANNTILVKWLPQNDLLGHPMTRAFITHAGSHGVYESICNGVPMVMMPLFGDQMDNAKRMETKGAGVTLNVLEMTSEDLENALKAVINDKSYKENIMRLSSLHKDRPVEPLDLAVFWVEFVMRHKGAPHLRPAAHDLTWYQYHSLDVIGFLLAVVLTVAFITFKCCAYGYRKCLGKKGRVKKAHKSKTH
Protocol: as §3

[6] = inhibitor 25 μM, raloxifene 50 μM
[7] = inhibitor 50 μM, raloxifene 50 μM
[8] = inhibitor 100 μM, raloxifene 50 μM
[9] = inhibitor 500 μM, raloxifene 50 μM
[10] = liver lot 032101, inhibitor 50 μM
[11] = liver lot 062101, inhibitor 50 μM
[12] = liver lot 083000, inhibitor 50 μM
[13] = raloxifene 50 μM, inhibitor 25 μM
[14] = raloxifene 50 μM, inhibitor 50 μM
[15] = raloxifene 50 μM, inhibitor 100 μM
[16] = inhibitor 10 μM, raloxifene 50 μM
[17] = raloxifene 50 μM, inhibitor 10 μM

SMILES | % of control metabolism, raloxifene G1 [2] | % of control metabolism, raloxifene G2 [2] | residual metabolism (% of control), 2ME2 MG1 ([3]; inhibitor 50 μM) | residual metabolism (% of control), 2ME2 MG2 ([3]; inhibitor 50 μM) | residual metabolism (% of control), 2ME2 MG1 ([3]; inhibitor 100 μM) | residual metabolism (% of control), 2ME2 MG2 ([3]; inhibitor 100 μM) | % of control metabolism (SD, n = 3), raloxifene glucuronide G1 [5, 6] | % of control metabolism (SD, n = 3), raloxifene glucuronide G1 [5, 7] | % of control metabolism (SD, n = 3), raloxifene glucuronide G1 [5, 8] | % of control metabolism (SD, n = 3), raloxifene glucuronide G1 [5, 9] | % of control metabolism (SD, n = 3), raloxifene glucuronide G2 [5, 6] | % of control metabolism (SD, n = 3), raloxifene glucuronide G2 [5, 7] | % of control metabolism (SD, n = 3), raloxifene glucuronide G2 [5, 8] | % of control metabolism (SD, n = 3), raloxifene glucuronide G2 [5, 9] | % of control metabolism, raloxifene G1 [5, 13] | % of control metabolism, raloxifene G2 [5, 13] | % of control metabolism, raloxifene G1 [5, 14] | % of control metabolism, raloxifene G2 [5, 14] | % of control metabolism, raloxifene G1 [5, 15] | % of control metabolism, raloxifene G2 [5, 15] | other results
O=C(O)c1cc(-c2ccc(F)cc2F)ccc1O [Diflunisal, reference compound] | 69 (3) % | 93 (6) % | 63 (2) % | 90 (5) % | 49 (1) % | 91 (1) % | 63 (3) % | 43 (1) % | 30 (4) % | 6 (1) % | 66 (1) % | 45 (2) % | 34 (1) % | 7 (1) % | 63 (3) % | 66 (1) % | 43 (1) % | 45 (2) % | 30 (4) % | 34 (1) % | residual metabolism (% of control), E2-3-β-D-glucuronide [1]: 62 (3), obs %; residual metabolism (percentage of control), labetalol LG1 ([4]; inhibitor 50 μM): 92 (4) %; residual metabolism (percentage of control), labetalol LG2 ([4]; inhibitor 50 μM): 80 (3) %; residual metabolism (percentage of control), labetalol LG1 ([4]; inhibitor 100 μM): 80 (6) % and 86 (5) %; residual metabolism (percentage of control), labetalol LG2 ([4]; inhibitor 100 μM): 70 (4) % and 73 (2) %; % of control metabolism, raloxifene G1 [5, 10]: 52 (1) %; % of control metabolism, raloxifene G2 [5, 10]: 54 (0) %; % of control metabolism, raloxifene G1 [5, 11]: 67 (2) %; % of control metabolism, raloxifene G2 [5, 11]: 57 (2) %; % of control metabolism, raloxifene G1 [5, 12]: 43 (1) %; % of control metabolism, raloxifene G2 [5, 12]: 45 (2) %
C=CCc1ccc(O)c(OC)c1 [Eugenol] | 91 (1) % | 96 (5) % | – | – | – | 72 (1) % | – | – | – | – | – | – | – | – | – | – | – | – | – | – | inhibition of raloxifene glucuronidation, in words (UGT1A9): amongst the best inhibitors; inhibition of raloxifene glucuronidation, in words (UGT1A10): ineffective; residual metabolism (percentage of control), labetalol LG1 ([4]; inhibitor 100 μM): 82 (2) %; residual metabolism (percentage of control), labetalol LG2 ([4]; inhibitor 100 μM): 75 (4) %; % of control metabolism, raloxifene G1 ([5]; 50 µM): 39 (0), 41 (3) % and 65 (1), 63 (3) % and 69 (4), 53 (2) %; % of control metabolism, raloxifene G2 ([5]; 50 µM): 39 (0), 41 (3) % and 65 (1), 63 (3) % and 69 (4), 53 (2) %
CC(CCc1ccccc1)NCC(O)c1ccc(O)c(C(N)=O)c1 (stereo not shown) [Labetalol, labetalol] | – | – | – | – | – | – | – | – | – | 104 (11) % | – | – | – | 102 (4) % | – | – | – | – | – | – | –
CCCCCCCCOC(=O)c1cc(O)c(O)c(O)c1 [Octyl gallate] | 80 (3) % | 137 (9) % | 68 (3) % | 94 (4) % | 51 (0) % | 65 (3) % | 48 (6) % | 37 (2) % | 31 (3) % | – | 59 (5) % | 46 (3) % | 52 (7) % | – | 48 (6) % | 59 (5) % | 37 (2) % | 46 (3) % | 31 (3) % | 52 (7) % | inhibition of raloxifene glucuronidation, in words (UGT1A9): very poor inhibitor; activity at 15 min, 50 µM (UGT1A9; formation of glucuronide G1, % of control metabolism, raloxifene G1, UGT1A9, inhibitor 50 μM): 84%; activity at 15 min, 50 µM (UGT1A9; formation of glucuronide G2, % of control metabolism, raloxifene G2, UGT1A9, inhibitor 50 μM): 70%; Inhibition of raloxifene glucuronidation, UGT1A9, second line per inhibitor (G2) (UGT1A9; second line (G2, metabolite not given), inhibitor 50 μM, raloxifene 50 μM, 250 μg/ml Supersomes, 1 mM UDPGA, 15 min): 70 (4); inhibition of raloxifene glucuronidation, in words (UGT1A10): very poor inhibitor; activity at 15 min, 50 µM (UGT1A10; formation of glucuronide G1, % of control metabolism, raloxifene G1, UGT1A10): 63%; activity at 15 min, 50 µM (UGT1A10; formation of glucuronide G2, % of control metabolism, raloxifene G2, UGT1A10): 71%; % of control metabolism (SD, n = 3), raloxifene glucuronide G1 [5, 16]: 68 (3) %; % of control metabolism (SD, n = 3), raloxifene glucuronide G2 [5, 16]: 75 (8) %; % of control metabolism, raloxifene G1 [5, 10]: 45 (1) %; % of control metabolism, raloxifene G2 [5, 10]: 59 (3) %; % of control metabolism, raloxifene G1 [5, 11]: 55 (5) %; % of control metabolism, raloxifene G2 [5, 11]: 45 (6) %; % of control metabolism, raloxifene G1 [5, 12]: 37 (2) %; % of control metabolism, raloxifene G2 [5, 12]: 46 (3) %; % of control metabolism, raloxifene G1 [5, 17]: 68 (3) %; % of control metabolism, raloxifene G2 [5, 17]: 75 (8) %
CCCOC(=O)c1cc(O)c(O)c(O)c1 [Propyl gallate] | – | – | – | – | – | – | 58 (4) % | 45 (6) % | 48 (2) % | 21 (1) % | 60 (4) % | 48 (6) % | 52 (3) % | 33 (2) % | 58 (4) % | 60 (4) % | 45 (6) % | 48 (6) % | 48 (2) % | 52 (3) % | –
